{SH} = thiol linker

The results in this text go back to US10010561B2, “Method of treating cancer using high efficiency self-illuminative nanocomplexes and method of manufacturing the same” (Research & Business Foundation Sungkyunkwan University, priority 2014, dated 2018).

Data set [1] in a line: doxorubicin capture in linear nucleic acid, doxorubicin autofluorescence. The data set is classed as physicochemical. The settings on record: room temperature, 24 hours; linear nucleic acid:doxorubicin 1:1 to 1:20; FIG. 5. Here is the method:
To contain doxorubicin in a new nucleic acid-based functional anticancer drug, linear nucleic acids represented by SEQ. ID. NO: 2 ([NT]) and SEQ. ID. NO: 3 (5'-/thiol/[NT]3') were used. To prepare a doxorubicin-binding linear nucleic acid, the linear nucleic acid and doxorubicin were mixed with various concentrations (linear nucleic acid:doxorubicin=1:1 to 1:20) and reacted at room temperature for 24 hours, and autofluorescence of the doxorubicin was detected.

Data set [2] in a line: luminescence activity of m-Rluc8 compared with wild-type luciferase. The data set is classed as biochemical. The following applies: versus wild-type luciferase purified by the same method; FIG. 2. The text has this: To obtain a high efficiency self-luminescent light source, a modified self-illuminative protein (m-Rluc8) in which artificial mutation occurred on an amino acid sequence of a wild-type luciferase was expressed in E. coli and purified. That is, an expression vector (m-Rluc8_pPAL7) into which the modified self-illuminative protein (m-Rluc8) consisting of an amino acid sequence (SEQ. ID. NO: 1) shown in FIG. 1 was inserted was manufactured, transformed into and expressed in E. coli BL21 strain cells and then purified, thereby obtaining a high purity modified self-illuminative protein (m-Rluc8).

As to “linear nucleic acid (DNA GTCGCAGGCACATCAGTACAGCCAGATCCGTACCTACTCG; DNA, 5' {SH}, backbone and methylation of C not given here; conjugated to gold)”, the “maximum doxorubicin binding to 1 μM linear nucleic acid” value in data set [1] is 10 µM.

B1: m-Rluc8: modified self-illuminative protein of SEQ. ID. NO: 1, wild-type Renilla luciferase mutated at 8 sites (protein)
chain: MASKVYDPEQRKRMITGPQWWARCKQMNVLDSFINYYDSEKHAENAVIFLHGNATSSYLWRHVVPHIEPVARCIIPDLIGMGKSGKSGNGSYRLLDHYKYLTAWFELLNLPKKIIFVGHDWGAALAFHYAYEHQDRIKAIVHMESVVDVIESWDEWPDIEEDIALIKSEEGEKMVLENNFFVETVLPSKIMRKLEPEEFAAYLEPFKEKGEVRRPTLSWPREIPLVKGGKPDVVQIVRNYNAYLRASDDLPKLFIESDPGFFSNAIVEGAKKFPNTEFVKVKGLHFLQEDAPDEMGKYIKSFVERVLKNEQ
modifications: Renilla luciferase
notes: ID; NO: 1, wild-type Renilla luciferase mutated at 8 sites
Take B1: the “luminescence activity relative to wild-type luciferase” value in data set [2] is “more than 5.65 fold”.
